In US12448388B2, “PRMT5 inhibitors and uses thereof” (Gilead Sciences, Inc., priority 2023, dated 2025):

These compounds were tested on HCT116 MTAP-deleted cell lines (assay: Cell viability assay (CellTiter-Glo, 7 days), HCT116 MTAP-deleted). Details: Homo sapiens, HCT-116.
Type: cell-based
In short: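 PRMT5 inhibitors were serially diluted in DMSO and acoustically spotted as dose-response series into plates before cell seeding. Cells were grown with compound for 7 days at 37 °C, 5% CO2, 90% humidity, then viability was read by CellTiter-Glo luminescence and reported as CC50.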
In the case of Nc1nc2cc(F)c(C(=O)N3CC4(CC[C@@H]3c3ccc(C(F)(F)F)cc3)CC4)cc2n2cncc12 (single isomer, unassigned) [Ff-154], the CC50 is reported as < 0.1 µM.

Same assay, conditions: Homo sapiens, HCT-116; cell viability assay, HCT116 MTAP-deleted; class symbols; read-out: CC50
In the case of Cc1ncn2c1c(N)nc1cnc(C(=O)N3C[C@H](C)C[C@@H]4Oc5c(ccc(C(F)(F)F)c5F)[C@@H]43)cc12 [Fg-63, (4-amino-3-methylimidazo[1,5-a]pyrido[3,4-e]pyrazin-8-yl)((3R,4aS,9bS)-6-fluoro-3-methyl-7-(trifluoromethyl)-3,4,4a,9b-tetrahydrobenzofuro[3,2-b]pyridin-1(2H)-yl)methanone], the CC50 is reported as < 0.1 µM.
In the case of COc1cc(C(F)(F)F)ccc1[C@@H](C)N(C)C(=O)c1cc2c(cc1F)nc(N)c1cncn12 [Ff-535, (R)-4-amino-7-fluoro-N-(1-(2-methoxy-4-(trifluoromethyl)phenyl)ethyl)-N-methylimidazo[1,5-a]quinoxaline-8-carboxamide], the CC50 is reported as 0.1 to 1 µM.
With Cc1ncn2c1c(N)nc1cc(F)c(C(=O)N3CC(C)(C)C[C@@H]4Oc5nc(C(F)(F)F)ccc5[C@@H]43)cc12 (racemic) [Ff-385, Rac-(4-amino-7-fluoro-3-methylimidazo[1,5-a]quinoxalin-8-yl)((4aS,9bS)-3,3-dimethyl-7-(trifluoromethyl)-3,4,4a,9b-tetrahydrofuro[2,3-b:4,5-b′]dipyridin-1(2H)-yl)methanone] the CC50 was < 0.1 µM.
Nc1nc2ccc(C(=O)N3CCC[C@@H]4Oc5cc(C(F)(F)F)ccc5[C@@H]43)cc2n2cnc(F)c12 [Ff-588, (4-amino-3-fluoroimidazo[1,5-a]quinoxalin-8-yl)((4aS,9bS)-7-(trifluoromethyl)-3,4,4a,9b-tetrahydrobenzofuro[3,2-b]pyridin-1(2H)-yl)methanone] was tested, and the CC50 was < 0.1 µM.
Nc1nc2cc(F)c(C(=O)N3CCC[C@@H]4Oc5cc(C(F)(F)F)ccc5[C@@H]43)cc2n2cnc(F)c12 [Ff-621, (4-amino-3,7-difluoroimidazo[1,5-a]quinoxalin-8-yl)((4aS,9bS)-7-(trifluoromethyl)-3,4,4a,9b-tetrahydrobenzofuro[3,2-b]pyridin-1(2H)-yl)methanone] showed a CC50 of 0.1 to 1 µM.
In the case of Nc1nc2cc(F)c(C(=O)N3CCO[C@@H]4Cc5cc(OC(F)F)ccc5[C@@H]43)cc2n2cncc12 [Fg-24, (4-amino-7-fluoroimidazo[1,5-a]quinoxalin-8-yl)((4aS,9aR)-7-(difluoromethoxy)-2,3,9,9a-tetrahydroindeno[2,1-b][1,4]oxazin-4(4aH)-yl)methanone], the CC50 is reported as < 0.1 µM.
With CN(C(=O)c1cc2c(cc1F)nc(N)c1cncn12)[C@@H]1COc2cc(C3CC3(C)C)ccc21 (stereo partly drawn) [Ff-475, 4-amino-N-((3S)-6-(2,2-dimethylcyclopropyl)-2,3-dihydrobenzofuran-3-yl)-7-fluoro-N-methylimidazo[1,5-a]quinoxaline-8-carboxamide] the CC50 was < 0.1 µM.
Nc1nc2cc(Cl)c(C(=O)N3CC[C@H]4C[C@@H]3c3c(F)cc(Cl)cc34)cc2n2cncc12 [Ff-488, (4-amino-7-chloroimidazo[1,5-a]quinoxalin-8-yl)((1R,5S)-7-chloro-9-fluoro-1,3,4,5-tetrahydro-2H-1,5-methanobenzo[c]azepin-2-yl)methanone] showed a CC50 of 0.1 to 1 µM.
Nc1nc2cc(F)c(C(=O)N3CCC[C@@H]4Oc5cc(C(F)(F)F)ccc5[C@@H]43)cc2n2cnc(Cl)c12 (single isomer, unassigned) [Ff-647] was tested, and the CC50 was < 0.1 µM.
Compound CN(C(=O)c1cc2c(cc1F)nc(N)c1cncn12)C1CSc2ccccc21 (stereo not drawn) [Ff-456, 4-amino-N-(2,3-dihydrobenzo[b]thiophen-3-yl)-7-fluoro-N-methylimidazo[1,5-a]quinoxaline-8-carboxamide] has a CC50 of 0.1 to 1 µM.
In the case of C[C@@H]1C[C@@H]2Oc3nc(C(F)(F)F)ccc3[C@@H]2N(C(=O)c2cc3c(cc2F)nc(N)c2cncn23)C1 [Ff-375, (4-amino-7-fluoroimidazo[1,5-a]quinoxalin-8-yl)((3R,4aS,9bS)-3-methyl-7-(trifluoromethyl)-3,4,4a,9b-tetrahydrofuro[2,3-b:4,5-b′]dipyridin-1(2H)-yl)methanone], the CC50 is reported as < 0.1 µM.
CCN(C(=O)c1cc2c(cn1)nc(N)c1c(C)ncn12)[C@@H]1COc2cc(C(F)(F)F)ccc21 [Ff-610, (S)-4-amino-N-ethyl-3-methyl-N-(6-(trifluoromethyl)-2,3-dihydrobenzofuran-3-yl)imidazo[1,5-a]pyrido[3,4-e]pyrazine-8-carboxamide] was tested, and the CC50 was < 0.1 µM.
Cc1ncn2c1c(N)nc1cnc(C(=O)N3CC4(CC4)C[C@@H]4Oc5cc(C(F)(F)F)ccc5[C@@H]43)cc12 [Fg-36, (4-amino-3-methylimidazo[1,5-a]pyrido[3,4-e]pyrazin-8-yl)((4aS,9bS)-7-(trifluoromethyl)-4a,9b-dihydro-2H-spiro[benzofuro[3,2-b]pyridine-3,1′-cyclopropan]-1(4H)-yl)methanone] was tested, and the CC50 was < 0.1 µM.
With C[C@H]1CN(C(=O)c2cc3c(cc2F)nc(N)c2cncn23)[C@H]2c3ccc(C#N)cc3C[C@H]2O1 [Ff-578, (2S,4aS,9aR)-4-(4-amino-7-fluoroimidazo[1,5-a]quinoxaline-8-carbonyl)-2-methyl-2,3,4,4a,9,9a-hexahydroindeno[2,1-b][1,4]oxazine-7-carbonitrile] the CC50 was < 0.1 µM.

Same assay, conditions: Homo sapiens, HCT-116; cell viability, HCT116 MTAP-deleted; class symbols; read-out: CC50
CN(C(=O)c1cc2c(cc1F)nc(N)c1cncn12)[C@H]1c2ccc(C(F)(F)F)cc2[C@H]2C[C@H]21 [Ff-255, 4-amino-7-fluoro-N-methyl-N-((1aS,6R,6aR)-3-(trifluoromethyl)-1,1a,6,6a-tetrahydrocyclopropa[a]inden-6-yl)imidazo[1,5-a]quinoxaline-8-carboxamide] gave a CC50 of 0.1 to 1 µM.
In the case of C[C@H]1CN(C(=O)c2cc3c(cn2)nc(N)c2cncn23)[C@H]2c3cc(F)c(OC(F)(F)F)cc3C[C@H]2O1 (single isomer, unassigned) [Ff-196], the CC50 is reported as < 0.1 µM.
With Nc1nc2cc(F)c(C(=O)N3CCC[C@@H]4Oc5cc(OC(F)(F)F)ccc5[C@@H]43)cc2n2cncc12 (racemic) [Ff-331, Rac-(4-amino-7-fluoroimidazo[1,5-a]quinoxalin-8-yl)((4aS,9bS)-7-(trifluoromethoxy)-3,4,4a,9b-tetrahydrobenzofuro[3,2-b]pyridin-1(2H)-yl)methanone] the CC50 was < 0.1 µM.
With COc1ccc2c(n1)CCC2N(C)C(=O)c1cc2c(cc1F)nc(N)c1cncn12 (stereo not drawn) [Ff-271, 4-amino-7-fluoro-N-(2-methoxy-6,7-dihydro-5H-cyclopenta[b]pyridin-5-yl)-N-methylimidazo[1,5-a]quinoxaline-8-carboxamide] the CC50 was 0.1 to 1 µM.
For C[C@H]1OC[C@@H](N(C)C(=O)c2ccc3nc(N)c4cncn4c3c2)c2ccc(C(F)(F)F)cc21 (racemic) [Ff-42, Cis-4-amino-N-methyl-N-(1-methyl-7-(trifluoromethyl)isochroman-4-yl)imidazo[1,5-a]quinoxaline-8-carboxamide], the CC50 was < 0.1 µM.
C[C@@H]1C[C@@H]2Oc3cc(C(F)(F)F)c(F)cc3[C@@H]2N(C(=O)c2cc3c(cn2)nc(N)c2cncn23)C1 [Ff-261, (4-aminoimidazo[1,5-a]pyrido[3,4-e]pyrazin-8-yl)((3R,4aS,9bS)-8-fluoro-3-methyl-7-(trifluoromethyl)-3,4,4a,9b-tetrahydrobenzofuro[3,2-b]pyridin-1(2H)-yl)methanone] was tested, and the CC50 was < 0.1 µM.
For CN(C(=O)c1cc2c(cc1F)nc(N)c1cncn12)C1COCc2nc(Br)ccc21 (stereo not drawn) [Ff-275, 4-amino-N-(2-bromo-5,8-dihydro-6H-pyrano[3,4-b]pyridin-5-yl)-7-fluoro-N-methylimidazo[1,5-a]quinoxaline-8-carboxamide], the CC50 was < 0.1 µM.
In the case of Nc1nc2ccc(C(=O)N3CCO[C@@H]4Cc5cc(C(F)(F)F)ccc5[C@@H]43)cc2n2cncc12 (racemic) [Ff-33, Racemic (4-aminoimidazo[1,5-a]quinoxalin-8-yl)((4aS,9aR)-7-(trifluoromethyl)-2,3,9,9a-tetrahydroindeno[2,1-b][1,4]oxazin-4(4aH)-yl)methanone], the CC50 is reported as 0.1 to 1 µM.
In the case of CN(C(=O)c1cc2c(cc1F)nc(N)c1cncn12)[C@@H]1COc2cc(C(C)(F)F)ccc21 [Ff-337, (S)-4-amino-N-(6-(1,1-difluoroethyl)-2,3-dihydrobenzofuran-3-yl)-7-fluoro-N-methylimidazo[1,5-a]quinoxaline-8-carboxamide], the CC50 is reported as < 0.1 µM.
CN(Cc1ccc(F)cc1Cl)C(=O)c1cc2c(cc1F)nc(N)c1cncn12 [Ff-31, 4-amino-N-(2-chloro-4-fluorobenzyl)-7-fluoro-N-methylimidazo[1,5-a]quinoxaline-8-carboxamide] was tested, and the CC50 was 0.1 to 1 µM.
With Nc1nc2cc(F)c(C(=O)N(Cc3ccc(C(F)(F)F)cc3F)c3cnsc3)cc2n2cncc12 [Ff-227, 4-amino-7-fluoro-N-(2-fluoro-4-(trifluoromethyl)benzyl)-N-(isothiazol-4-yl)imidazo[1,5-a]quinoxaline-8-carboxamide] the CC50 was < 0.1 µM.
For [2H]C([2H])([2H])N(C(=O)c1cc2c(cc1F)nc(N)c1cncn12)[C@@H](c1ccc(C(F)(F)F)cc1F)C(F)F [Fb-18, (S)-4-amino-N-(2,2-difluoro-1-(2-fluoro-4-(trifluoromethyl)phenyl)ethyl)-7-fluoro-N-(methyl-d3)imidazo[1,5-a]quinoxaline-8-carboxamide], the CC50 was < 0.1 µM.
With Cc1ncc2c(N)nc3cc(F)c(C(=O)N4CCC[C@@H]5Oc6cc(C(F)(F)F)ccc6[C@@H]54)cc3n12 (racemic) [Ff-99, Rac-(4-amino-7-fluoro-1-methylimidazo[1,5-a]quinoxalin-8-yl)(7-(trifluoromethyl)-3,4,4a,9b-tetrahydrobenzofuro[3,2-b]pyridin-1(2H)-yl)methanone] the CC50 was < 0.1 µM.
For Nc1nc2cc(F)c(C(=O)N3CCO[C@@H]4Cc5cc(Br)c(F)cc5[C@@H]43)cc2n2cncc12 [Ff-160, (4-amino-7-fluoroimidazo[1,5-a]quinoxalin-8-yl)((4aS,9aR)-7-bromo-6-fluoro-2,3,9,9a-tetrahydroindeno[2,1-b][1,4]oxazin-4(4aH)-yl)methanone], the CC50 was < 0.1 µM.
With CN(Cc1ccc(F)cc1Cl)C(=O)c1ccc2nc(N)c3cncn3c2c1 [Ff-30, 4-amino-N-(2-chloro-4-fluorobenzyl)-N-methylimidazo[1,5-a]quinoxaline-8-carboxamide] the CC50 was > 1 µM.
